Experimental data taken from patent publication US10377747B2, “2-arylamino pyridine, pyrimidine or triazine derivatives, preparation method and use thereof” (Wuxi Shuangliang Biotechnology Co., Ltd., priority 2015, dated 2019).

Legend:
[1] = test system: H1975 (non-small-cell lung cancer cells. EGFR L858K/T790M); assay: Tumor cell proliferation and growth inhibition analysis (Cell Titer-Glo, 72 h), H1975; assay type: cell-based; conditions: Homo sapiens, NCI-H1975; H1975 cells, 72 h exposure, Cell Titer-Glo; read-out: H1975 GI50
From the text: (§1) […] cell proliferation assay is described as follows.
(§2) Tumor cell proliferation and growth inhibition analysis: H1975 (non-small-cell lung cancer cells. EGFR L858K/T790M) and A431 (human epidermal cancer cells, EGFR wild type) cells were commercially available from the ATCC cell bank. […] The growth medium for A431 cells was DMEM (GIBCO, 11995-065), 10% fetal bovine serum. The influence exerted by the compounds on the proliferation activity of tumor cells was detected by Cell Titer-Glo assay. Tumor cells were exposed to the treatment conditions for 72 h, and the cell density used in each experiment for each cell line was adjusted according to the 72 h cell growth curve. 10 concentration gradients and three-fold dilutions (0.5 nM-10 μM) were set for compounds to be tested, and 3 parallel controls were used for each concentration value.
(§3) Trypsin was used for digesting cells in the logrithmic growth phase to prepare cell suspension, which was counted by a Roche counter and appropriately diluted with complete medium to a final cell concentration of 1˜2×10^3 cell/mL. 384-well plates were seeded with cells, and 22.6 μL were seeded for each well. 3 parallels were set. The plates were incubated in an incubator with 5% CO2 at 37° C. overnight. The compounds were dissolved in DMSO to prepare […] mother liquor. […] 2 μL of compound solution was added into 18 μL of culture medium, and fully mixed. Then 2 μL of mixed solution of compound and culture medium was added into 18 μL of culture medium, and fully mixed. 2.4 μL of mixtures were added into a 384-well plates. […] After cultivation for 72 h, 24 μL of Cell Titer-Glo reagent was added. The contents were mixed on an orbital shaker for 2 min to induce cell lysis. The 384-well plates were incubated at room temperature for 10 min to stabilize the […] signal value. Data was read by Infinite® M1000 PRO (TECAN), and calculated with GraphPad Prism version 5.0. GI50 value was obtained by adjustment using a non-linear regression model of dose response curves.

[2] = test system: A431 (human epidermal cancer cells, EGFR wild type); assay: Tumor cell proliferation and growth inhibition analysis (Cell Titer-Glo, 72 h), A431; assay type: cell-based; conditions: A-431, 72 h exposure
From the text: as §1, §2, §3

Row | GI50 [1] [nM] | GI50 [2] [nM] | Compound
1 | 462 | 2570 | C=CC(=O)Nc1cc(Nc2ncnc(-c3cccc4cc[nH]c34)n2)c(OC)cc1N1CCN(C)CC1 [Example 34, N-(5-((4-(1H-indol-7-yl)-1,3,5-triazin-2-yl)amino)-4-methoxy-2-(4-methylpiperazin-1-yl)phenyl)acrylamide]
2 | 4 | 89.1 | C=CC(=O)Nc1cc(Nc2nccc(-c3noc4ccccc34)n2)c(OC(F)F)cc1N(C)CCN(C)C [Example 6, N-(5-((4-(benzo[d]isoxazol-3-yl)pyrimidin-2-yl)amino)-4-(difluoromethoxy)-2-((2-(dimethylamino)ethyl)(methyl)amino)phenyl)acrylamide]
3 | 114 | 1120 | C=CC(=O)Nc1cc(Nc2ncnc(-c3cccc4cc[nH]c34)n2)c(OC)cc1N1CC2(CCCN2C)C1 [Example 36, N-(5-((4-(1H-indol-7-yl)-1,3,5-triazin-2-yl)amino)-4-methoxy-2-(5-methyl-2,5-diazaspiro[3.4]oct-2-yl)phenyl)acrylamide]
4 | 9.4 | 147 | C=CC(=O)Nc1cc(Nc2ncnc(-c3cccc4cc[nH]c34)n2)c(OC)cc1N(C)CCN(C)C [Example 32, N-(5-((4-(H-indol-7-yl)-1,3,5-triazin-2-yl)amino)-2-((2-(dimethylamino)ethyl)(methyl)amino)-4-methoxyphenyl)acylamide]
5 | 7.3 | ~110 | C=CC(=O)Nc1cc(Nc2nccc(-c3noc4ccccc34)n2)c(OC)cc1N(C)CCN(C)C [Example 1]
6 | 28.9 | 198 | C=CC(=O)Nc1cc(Nc2cc(-c3cn(C)c4ncccc34)ccn2)c(OC)cc1N(C)CCN(C)C [Example 40, N-(2-((2-(dimethylamino)ethyl)(methyl)amino)-4-methoxy-5-((4-(1-methyl-1H-pyrrolo[2,3-b]pyridin-3-yl)pyridin-2-yl)amino)phenyl)acrylamide]
7 | 10.7 | 209 | C=CC(=O)Nc1cc(Nc2nccc(-c3nn(C)c4ccsc34)n2)c(OC)cc1N(C)CCN(C)C [Example 24, N-(2-((2-(dimethylamino)ethyl)(methyl)amino)-4-methoxy-5-((4-(1-methyl-1H-thieno[3,2-c]pyrazol-3-yl)pyrimidin-2-yl)amino)phenyl)acrylamide]
8 | 21.2 | 15.2 | C=CC(=O)Nc1cc(Nc2ncnc(-n3cnc4ccccc43)n2)c(OC)cc1N(C)CCN(C)C [Example 39, N-(5-((4-(1H-benzo[d]imidazol-1-yl)-1,3,5-triazin-2-yl)amino)-2-((2-(dimethylamino)ethyl)(methyl)amino)-4-methoxyphenyl)acrylamide]
